From ChEMBL document CHEMBL3817786, “An Unusual Natural Product Primary Sulfonamide: Synthesis, Carbonic Anhydrase Inhibition, and Protein X-ray Structures of Psammaplin C” (J Med Chem, 2016) come the findings set out here.

One test addresses Carbonic anhydrase 4 (Homo sapiens, UniProt P22748). As to the kind of experiment: Inhibition of human recombinant carbonic anhydrase 4 expressed in Escherichia coli BL21 (DE3) by stopped-flow CO2 hydration assay.
Test [1] deals with Carbonic anhydrase 5A, mitochondrial (Homo sapiens, UniProt P35218). As to the kind of experiment: Inhibition of human recombinant carbonic anhydrase 5A expressed in Escherichia coli BL21 (DE3) by stopped-flow CO2 hydration assay.
Sequence of Carbonic anhydrase 5A, mitochondrial (P35218 whole entry): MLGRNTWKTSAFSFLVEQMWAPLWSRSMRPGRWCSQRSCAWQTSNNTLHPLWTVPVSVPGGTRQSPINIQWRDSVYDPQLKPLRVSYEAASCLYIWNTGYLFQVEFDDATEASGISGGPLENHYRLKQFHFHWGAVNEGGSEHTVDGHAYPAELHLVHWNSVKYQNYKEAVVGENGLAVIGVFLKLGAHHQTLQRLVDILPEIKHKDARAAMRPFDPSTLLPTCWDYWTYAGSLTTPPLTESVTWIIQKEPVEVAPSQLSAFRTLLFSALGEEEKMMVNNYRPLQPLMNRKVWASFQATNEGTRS
The target in the next test is Carbonic anhydrase 6 (Homo sapiens, UniProt P23280). As to the kind of experiment: Inhibition of human recombinant carbonic anhydrase 6 expressed in Escherichia coli BL21 (DE3) by stopped-flow CO2 hydration assay.
Sequence of Carbonic anhydrase 6 (P23280 whole entry): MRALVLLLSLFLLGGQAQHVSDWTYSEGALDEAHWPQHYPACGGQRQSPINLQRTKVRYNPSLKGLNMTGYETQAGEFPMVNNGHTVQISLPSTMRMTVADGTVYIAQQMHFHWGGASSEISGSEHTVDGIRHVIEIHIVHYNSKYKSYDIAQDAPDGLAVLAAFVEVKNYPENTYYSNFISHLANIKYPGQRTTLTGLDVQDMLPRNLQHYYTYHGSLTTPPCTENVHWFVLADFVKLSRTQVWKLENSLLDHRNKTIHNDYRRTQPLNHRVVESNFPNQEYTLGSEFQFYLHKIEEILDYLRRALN
The target in another test is Carbonic anhydrase 7 (Homo sapiens, UniProt P43166). As to the kind of experiment: Inhibition of human recombinant carbonic anhydrase 7 expressed in Escherichia coli BL21 (DE3) by stopped-flow CO2 hydration assay.
Sequence of Carbonic anhydrase 7 (P43166 whole entry): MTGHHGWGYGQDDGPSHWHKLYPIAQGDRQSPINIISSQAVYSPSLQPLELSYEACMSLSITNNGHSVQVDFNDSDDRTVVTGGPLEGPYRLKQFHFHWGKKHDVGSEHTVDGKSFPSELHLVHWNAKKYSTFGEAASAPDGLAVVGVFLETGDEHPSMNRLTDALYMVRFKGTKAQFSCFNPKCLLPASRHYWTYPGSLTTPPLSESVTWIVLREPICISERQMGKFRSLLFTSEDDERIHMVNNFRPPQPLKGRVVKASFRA
In another test the target is Carbonic anhydrase 13 (Homo sapiens, UniProt Q8N1Q1). The test is described as follows: Inhibition of human recombinant carbonic anhydrase 13 expressed in Escherichia coli BL21 (DE3) by stopped-flow CO2 hydration assay.
Sequence of Carbonic anhydrase 13 (Q8N1Q1 whole entry): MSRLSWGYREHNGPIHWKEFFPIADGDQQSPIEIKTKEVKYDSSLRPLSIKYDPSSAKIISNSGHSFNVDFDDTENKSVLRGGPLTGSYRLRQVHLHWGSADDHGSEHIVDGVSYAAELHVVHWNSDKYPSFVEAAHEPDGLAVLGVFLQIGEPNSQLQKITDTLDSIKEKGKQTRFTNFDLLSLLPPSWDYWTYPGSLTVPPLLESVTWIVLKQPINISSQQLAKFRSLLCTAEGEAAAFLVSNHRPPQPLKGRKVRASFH
In a further test the target is Carbonic anhydrase 14 (Homo sapiens, UniProt Q9ULX7). As to the kind of experiment: Inhibition of human recombinant carbonic anhydrase 14 expressed in Escherichia coli BL21 (DE3) by stopped-flow CO2 hydration assay.
Sequence of Carbonic anhydrase 14 (Q9ULX7 whole entry): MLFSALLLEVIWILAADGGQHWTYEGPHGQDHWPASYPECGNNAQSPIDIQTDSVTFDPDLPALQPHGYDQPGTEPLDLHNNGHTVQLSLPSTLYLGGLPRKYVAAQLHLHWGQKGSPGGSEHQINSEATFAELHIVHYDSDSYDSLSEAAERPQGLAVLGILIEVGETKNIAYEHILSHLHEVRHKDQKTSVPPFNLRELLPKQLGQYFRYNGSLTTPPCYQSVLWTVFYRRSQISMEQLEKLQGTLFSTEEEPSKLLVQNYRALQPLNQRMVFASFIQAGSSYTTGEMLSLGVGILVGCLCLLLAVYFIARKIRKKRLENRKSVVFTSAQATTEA

Sequence of Carbonic anhydrase 4 (P22748 whole entry): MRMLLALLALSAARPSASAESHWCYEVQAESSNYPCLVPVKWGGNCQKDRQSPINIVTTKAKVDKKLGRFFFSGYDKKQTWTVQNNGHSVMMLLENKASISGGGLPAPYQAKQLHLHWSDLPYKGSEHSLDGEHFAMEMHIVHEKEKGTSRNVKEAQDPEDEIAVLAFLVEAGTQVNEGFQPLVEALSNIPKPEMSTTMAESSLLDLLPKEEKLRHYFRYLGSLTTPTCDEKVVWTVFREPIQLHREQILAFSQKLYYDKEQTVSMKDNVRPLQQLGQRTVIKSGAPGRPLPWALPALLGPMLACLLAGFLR

By Ki is commonly meant a measure of affinity in units of concentration, obtained from inhibition or displacement. As for `NS(=O)(=O)CCNC(=O)/C(Cc1ccc(O)c(Br)c1)=N/O`, the Ki came to 75.3 nM on Carbonic anhydrase 4; 154 nM in test [1]; 9680 nM at Carbonic anhydrase 6; 1.7 nM on Carbonic anhydrase 7; 10600 nM on Carbonic anhydrase 13; 379 nM at Carbonic anhydrase 14.
